Measurements reported in patent US20140274785A1, “BIOMARKERS” (priority 2013, published 2014).
Entries after “also recorded” stand apart in the source; their conditions may differ.

Experiments:
SOD1-G93A TGN mice = assay: Onset of symptoms (stride length/gait analysis) and death in SOD1-G93A TGN mice, treatment started presymptomatic (7 weeks); format: in vivo, mouse; details: for Onset of motor deficits: vehicle 20% cyclodextran 88-100 days; for Mortality: vehicle 20% cyclodextran 105-112 days
Experimental: The one and two-drug treatments were started at an early (i.e., presymptomatic) stage of disease (7 weeks). SOD1-G93A TGN mice were treated 3 times a week with noscapine (0.2 mg/kg body weight) and/or MK-801 (12 mg/kg body weight/day). Mice received noscapine intraperitoneally and MK-801 in drinking water.
Female SOD-1 G93A TGN mice were obtained from Jackson laboratory (strain #2726). The controls were matched litter mates. Treatment groups were three per group. Noscapine was injected intraperitoneal in the thigh 3 times/week (0.2 mg/kg i.p.) and MK801 was administered continuously in drinking water (12 mg/kg/d). Gait analysis was done by the method of Wooley et al., Muscle Nerve 2005 32(1):43-50 and Carter et al. J. Neurosci., 19(8):3248-3257, hereby incorporated by reference in their entirety.
For clinical assessment endpoints scoring was selected as follows:
Clinical signs: Full mobility and no observable difference in behavior from age-matched controls (Gait or stride length analysis).
Clinical signs: Abnormal Gait or stride length analysis and hindlimb weakness: >40% reduction in stride length vs. age-matched littermates.
Clinical signs: noticeable and complete hind limb paralysis (which in this strain occurs more on one limb than the other) and inability to right themselves in 5 sec time window. This stage starts usually as the mice are failing the gait analysis test and enter the End stage. Therefore, Transgenic SOD1-G93A TGN mice are euthanized at the onset of noticeable and complete hindlimb paralysis and inability to right themselves in 5 sec time window.

hyperdynamic MTs = assay: Microtubule turnover in MPTP-injected PD mouse model; format: in vivo; details: treatment from 7 days after last MPTP injection for 10 days; n=4
Experimental: FIGS. 28A-28B show an illustration of altered microtubule (MT) turnover in two preclinical models of Parkinson's disease (PD). (A) The acute MPTP intoxication PD model (8 wk old C57b1/6 mice were injected four times with 20 mg/kg on 1 day, at 2 h interval) show hyperdynamic tau-associated and cold-stable (CS) MTs in striatum and substantia nigra at 3 and 7 days after the last (fourth) MPTP injection (n=4 per group, males aged 8 weeks, mean±SD; *P<0.001). (B) In vivo MT dynamics was measured in substantia nigra and striatum at presymptomatic (4 and 10 months) and symptomatic (15 months) disease stage in transgenic alpha-synucleinA53T PD mice (−/−/SNCAA53T). […]
FIGS. 29A-29C show normalized microtubule (MT) turnover correlate with reverse of symptoms in the MPTP-injected PD mouse model after treatment with the MTMA noscapine. […] Neuromuscular strength was measured using the grip strength test (B) and the grid hang test (C). Grip strength test measured the tension peak of pull (gram of force) by the forepaws and it was performed 1 day before (day 0), 1, 2, 3, 4, 5, 7 and 17 days after the last (fourth) MPTP injection (n=10, males per each time point). The hang test was performed 17 days after the last (fourth) MPTP-injection and percentage of success was recorded as maximum time hanging/300 sec×100 (n=10, males per each time point).

[1] = test system: fast axonal transport of 2H-labeled cargo proteins; assay: MT-mediated fast axonal transport: CSF secretion kinetics and spinal cord retention of 2H-labeled cargo proteins in symptomatic SOD1G93A mice; format: in vivo, mouse
MPTP-injected mice = assay: Neuromuscular strength (grip strength test, grid hang test) in MPTP-injected mice; format: in vivo, mouse; details: treatment from 7 days after last MPTP injection for 10 days; n=10
Experimental: Noscapine was administered at 7 days after the last MPTP-injection, treatment was for 10 days and a pulse of ^2H2O labeling was administered the last day of treatment (17 days after, fourth, MPTP injection). […] Neuromuscular strength was measured using the grip strength test (B) and the grid hang test (C). […] The hang test was performed 17 days after the last (fourth) MPTP-injection and percentage of success was recorded as maximum time hanging/300 sec×100 (n=10, males per each time point).

[2] = test system: transport of neuronal cargo proteins; assay: CSF secretion kinetics of 2H-labeled cargo proteins in symptomatic PD MPTP-injected mice; format: in vivo, mouse
Experimental: Noscapine was administered 7 days after the last MPTP injection, treatment was for 10 days, and a pulse of ^2H2O labeling was administered on the last day of treatment (17 days after the fourth and final MPTP injection

Row | Compound | Onset of motor deficits (SOD1-G93A TGN mice) | Mortality (SOD1-G93A TGN mice) | hyperdynamic MTs (hyperdynamic MTs) | MT-mediated fast axonal transport rates of 2H-label neuregulin-1 and chromogranin-B containing synaptic vesicles ([1]; 3 weeks treatment, 100 mg/kg/d and 200 mg/kg/d, 13 weeks mice) | kinetic of 2H-alpha synuclein in CSF ([1]; symptomatic ALS SOD1G93A) | transport rates of 2H-Chr-B, 2H-NeuR-1 and 2H-sAPP in CSF ([1]; symptomatic ALS SOD1G93A, vs age-matched wild type, n=10 per time point) | symptoms (grip strength test, grid hang test) (MPTP-injected mice) | kinetics of 2H-NeuR-1 in CSF ([2]; symptomatic PD MPTP-injected mice) | kinetics of secretion of 2H-Chr-B, 2H-sAPP in CSF ([2]; treatment from 7 days after last MPTP injection for 10 days, n=10 per time point)
1 | C[C@]12N[C@H](Cc3ccccc31)c1ccccc12 [MK-801, Dizocilipine] | 105 to 112 days | 112 to 119 days | – | – | – | – | – | – | –
2 | COc1ccc2c(c1OC)C(=O)O[C@@H]2[C@H]1c2c(cc3c(c2OC)OCO3)CCN1C [Noscapine, noscapine] | 98 to 105 days | 112 to 119 days | reduced hyperdynamic MTs | normalized; also recorded: improves this delayed fast axonal transport | not adversely affected | normalized transport rates | reverses symptoms | not adversely affected | normalized the kinetics of secretion
